Results taken from publication PMC12339163, “Combining Plant Bioactives With Antibiotics for Enhanced Antibiofilm Activity Against Uropathogenic Staphylococcus spp. and Cytotoxicity Evaluation” (Advances in Pharmacological and Pharmaceutical Sciences, 2025).
Converted amounts (≈) assume the structure as drawn. “And” between values parts separate entries of the source, which are not always exact repeats. Equal entries are not always repeated. Where two headings read alike, the source gives them in different places.

Columns and labels:
S. aureus = experiment: MIC and MBC, broth microdilution; assay type: cell-based, Staphylococcus aureus; conditions: geometric mean, S. aureus (n = 3)
Method: (§1) Seven clinical isolates of Staphylococcus spp. including 2 S. aureus, 3 S. saprophyticus, and 2 S. epidermidis were used. They were isolated from urine samples in our previous study. Two reference strains (S. aureus ATCC1026 and S. epidermidis ATCC35984) obtained from the American Type Culture Collection were also included. They were kept in the mixture of glycerol and Mueller Hinton Broth (MHB) (1:1) at −20°C, and the activation was achieved using the streak technique on Mueller Hinton agar (MHA) medium.
(§2) The MICs of ATBs and NPs were determined by the broth microdilution method as previously described. NPs and ATBs were, respectively, prepared at 4096 µg/mL and 512 µg/mL and serially diluted twofold with MHB in a 96-well microplate at a volume of 100 µL. Then, the wells were filled with 100 µL of inoculum (1.5 × 10^6 CFU/mL) to give final concentrations ranging from 1024 µg/mL to 0.5 µg/mL and 128 µg/mL to 0.062 µg/mL of NPs and ATBs, respectively. The microplates were incubated for 24 h at 37°C. Wells containing only bacterial inoculum were used as the negative control. After incubation, a volume of 40 µL of INT solution (0.2 mg/mL) was added to each well, and the microplate was incubated at 37°C for 30 min. Viable bacteria cells change the yellow dye of INT to a pink color. The MIC was considered as the lowest concentration of the sample at which there was no change in the coloration of the medium, corresponding to the complete inhibition of microbial growth.
(§3) All tests were performed in triplicate.

S. saprophyticus = experiment: MIC and MBC, broth microdilution; assay type: cell-based, Staphylococcus saprophyticus; conditions: geometric mean, S. saprophyticus (n = 3)
Method: as §1, §2, §3

S. epidermidis biofilm = experiment: Biofilm inhibition assay (MBIC, MTT); assay type: cell-based, Staphylococcus epidermidis; conditions: geometric mean, S. epidermidis (n = 3); for minimal effective concentration: Staphylococcus epidermidis, 24 h
Method: (§4) The biofilm formation inhibitory activity of NPs and ATBs was carried out according to the method previously described. A total of 100 µL of bacterial inoculum (1.5 × 10^6 CFU/mL) was used, and 100 µL of each sample was added to the microplate to achieve final concentrations ranging from 0.25 µg/mL to 128 µg/mL for ATBs and from 8 µg/mL to 1024 µg/mL for NPs. Then, the microplate was incubated at 37°C for 24 h. After incubation, the plates were gently emptied and washed three times with a phosphate buffer solution at pH 7.2. Then, the MTT solution (0.5 mg/mL) prepared in PBS was introduced into each well, and the microplate was further incubated at 37°C for 24 h. Untreated wells containing bacterial suspension and MHB supplemented with 1% glucose were considered positive controls, and wells containing only MHB+1% glucose without bacteria were used as blanks. After incubation, the MTT solution was aspirated, then 150 µL of DMSO was introduced to dissolve the formazan crystal formed by viable bacteria, and the optical density (OD) was measured at 570 nm using a microplate reader (VERSA-max). The percentage of biofilm inhibition was calculated using the formula below, and the minimal biofilm inhibitory concentration (MBIC) was recorded as the lowest concentration of NPs or ATBs that inhibited 100% of biofilm:(1) % biofilm inhibition=ODcontrol−ODblank−ODtest−ODblank/ODcontrol−ODblank×100.

S. saprophyticus biofilm [1] = experiment: Biofilm eradication assay (MBEC, MTT); assay type: cell-based, Staphylococcus saprophyticus; conditions: geometric mean, S. saprophyticus (n = 3); for minimal effective concentration: Staphylococcus saprophyticus, 24 h
Method: (§5) The determination of the biofilm eradication potential of NPs and ATBs was performed as previously described. Briefly, 100 µL of bacterial inoculum (1.5 × 10^6 CFU/mL) and 100 µL of MHB + 1% glucose were introduced into the microplate, incubated at 37°C for 24 h, and the microplate was gently emptied and washed three times with PBS. Then, 200 µL of ATBs or NPs at respective concentrations ranging from 8 to 1024 µg/mL and from 16 to 2048 µg/mL were incubated at 37°C for 24 h. Once incubation was completed, the microplate was processed as described above, and the percentage of biofilm eradication was calculated using the formula below. The minimal biofilm eradicating concentration (MBEC) was recorded as the lowest concentration of the test sample that reduces 100% of biofilm:(2) % biofilm eradication=ODcontrol−ODblank−ODtest−ODblank/ODcontrol−ODblank×100.

S. saprophyticus biofilm [2] = experiment: Biofilm inhibition assay (MBIC, MTT); assay type: cell-based, Staphylococcus saprophyticus; conditions: geometric mean, S. saprophyticus (n = 3); for minimal effective concentration: Staphylococcus saprophyticus, 24 h
Method: as §4

[3] = system: Staphylococcus epidermidis biofilm; experiment: Checkerboard combination assay, biofilm eradication; assay type: cell-based
Method: The effect of the combination of ATBs with NPs on the preformed biofilm was evaluated by determining the FICI, as described above for biofilm formation, with slight modifications. After biofilm formation for 24 h, the plate was gently emptied and washed three times with PBS. Then, 50 µL of ATBs and 50 µL of NPs were introduced to the plate. The final concentration ranges from 0.0625 to 128 µg/mL and from 4 to 512 µg/mL for ATBs and NPs, respectively, and is incubated at 37°C for 24 h. After incubation, the medium was gently removed, and the plate was washed three times with PBS. At the end of the incubation time, the MTT reduction assay was performed, and the MBEC was determined. To assess the effect of the combination, the FICI was calculated and interpreted as described above.

[4] = system: Staphylococcus aureus biofilm; experiment: Checkerboard combination assay, biofilm inhibition; assay type: cell-based
Method: (§6) The effect of the combination of ATBs with NPs on biofilm formation was evaluated by determining the FICI, as described above for planktonic cells, except that the MHB was supplemented with 1% glucose.
(§7) The lowest MBICs of ATBs or NPs that inhibited metabolic activity in the biofilm were determined as described above. The FICI was used to perform the effect of combination and calculated as follows: FICI: (MBIC of ATBs in combinations/MBIC of ATBs alone) + (MBIC of NP in the combinations/MBIC of NP alone). FICI was interpreted as indicated above.

[5] = system: Staphylococcus epidermidis biofilm; experiment: Checkerboard combination assay, biofilm inhibition; assay type: cell-based
Method: as §6, §7

[6] = system: Staphylococcus saprophyticus biofilm; experiment: Checkerboard combination assay, biofilm inhibition; assay type: cell-based
Method: as §6, §7

S. aureus biofilm = experiment: Biofilm eradication assay (MBEC, MTT); assay type: cell-based, Staphylococcus aureus; conditions: geometric mean, S. aureus (n = 3); for minimal effective concentration: Staphylococcus aureus, 24 h
Method: as §5

[7] = S. epidermidis biofilm eradication, antibiotic alone, mean MBEC
[8] = antibiotic alone, S. aureus biofilm inhibition
[9] = S. epidermidis, biofilm inhibition, mean
[10] = S. saprophyticus, biofilm inhibition, mean
[11] = antibiotic alone, S. saprophyticus biofilm inhibition
[12] = Staphylococcus aureus, antibiotics, read-out: MBC
[13] = Staphylococcus aureus, read-out: MIC
[14] = Staphylococcus saprophyticus, antibiotics, read-out: MBC
[15] = Staphylococcus saprophyticus, read-out: MIC
[16] = antibiotic alone, S. epidermidis biofilm inhibition
[17] = S. epidermidis, biofilm eradication, mean
[18] = S. aureus, biofilm inhibition, mean

Structure (SMILES)	MBEC Alone ATB [3, 7] [µg/mL]	MBIC alone, ATB [4, 8] [µg/mL]	MBIC alone, ATB [5, 9] [µg/mL]	MBIC alone, ATB [6, 10] [µg/mL]	MBIC alone, ATB [6, 11] [µg/mL]	MBC (S. aureus; [12]) [µg/mL]	MIC (S. aureus; [13]) [µg/mL]	MBC (S. saprophyticus; [14]) [µg/mL]	MIC (S. saprophyticus; [15]) [µg/mL]	minimal effective concentration (S. epidermidis biofilm) [µg/mL]	minimal effective concentration (S. saprophyticus biofilm [1]) [µg/mL]	minimal effective concentration (S. saprophyticus biofilm [2]) [µg/mL]	MBIC alone, ATB [5, 16] [µg/mL]	minimal effective concentration (S. aureus biofilm) [µg/mL]	MBEC Alone ATB [3, 17] [µg/mL]	MBIC alone, ATB [4, 18] [µg/mL]	other results
NC[C@H]1O[C@H](O[C@H]2[C@H](O)[C@@H](O[C@H]3O[C@H](CO)[C@@H](O)[C@H](N)[C@H]3O)[C@H](N)C[C@@H]2N)[C@H](O)[C@@H](O)[C@@H]1O [Kanamycin, kanamycin]	13.33	1.83	24.66	4.08	4.083	–	–	–	–	–	–	–	–	–	–	–	MBC (S. aureus; antibiotics): 69.33 µg/mL (≈ 143 µM); MIC (S. aureus): 22.66 µg/mL (≈ 46.8 µM); MBC (S. saprophyticus; antibiotics): — (> 128 µg/mL for ATBs); MIC (S. saprophyticus): 14 µg/mL (≈ 28.9 µM); MBIC (S. epidermidis biofilm): 24.66 µg/mL; MBEC (S. saprophyticus biofilm [1]): 10.66 µg/mL; MBIC (S. saprophyticus biofilm [2]): 4.08 µg/mL; MBIC alone, ATB ([5]; antibiotic alone, S. epidermidis biofilm inhibition, listed as Kan): 24.66 µg/mL and 43.33 µg/mL; MBEC (S. aureus biofilm): 14.66 µg/mL
CC[C@H]1OC(=O)[C@H](C)[C@@H](O[C@H]2C[C@@](C)(OC)[C@@H](O)[C@H](C)O2)[C@H](C)[C@@H](O[C@@H]2O[C@H](C)C[C@H](N(C)C)[C@H]2O)[C@](C)(O)C[C@@H](C)C(=O)[C@H](C)[C@@H](O)[C@]1(C)O [Erythromycin, erythromycin]	18.66	42.83	–	–	27.33	> 128	108 (≈ 147 µM)	> 128	4.66 (≈ 6.35 µM)	24	29.3	27.3	24	42.8	–	–	–
Cc1nnc(SCC2=C(C(=O)O)N3C(=O)[C@@H](NC(=O)Cn4cnnn4)[C@H]3SC2)s1 [Cefazolin, cefazolin]	10.66	4.66	8.66	8.33	8.33	> 128	42.7 (≈ 93.9 µM)	> 128	64.7 (≈ 142 µM)	8.66	10.7	8.53	8.66	42.7	42.66	4.66	–
Cc1ccc(C(C)C)c(O)c1 [Thymol, thymol]	–	–	–	–	–	–	299 (≈ 1990 µM)	–	341 (≈ 2270 µM)	213	107	128	–	107	–	–	MBC (S. aureus; Staphylococcus aureus, natural products, read-out: MBC): > 1020 µg/mL; MBC (S. saprophyticus; Staphylococcus saprophyticus, natural products, read-out: MBC): > 1020 µg/mL; MBEC Alone NPs ([3]; S. epidermidis biofilm eradication, natural product alone, mean MBEC, listed as Thy): 128 µg/mL and 106.66 µg/mL; MBIC alone, NPs [4, 18]: 341.33 µg/mL; MBIC alone, NPs ([4]; natural product alone, S. aureus biofilm inhibition): 341.33 µg/mL; MBIC alone, NPs [5, 9]: 213.33 µg/mL; MBIC alone, NPs ([5]; natural product alone, S. epidermidis biofilm inhibition): 213.33 µg/mL; MBIC alone, NPs [6, 10]: 128 µg/mL; MBIC alone, NPs ([6]; natural product alone, S. saprophyticus biofilm inhibition): 128 µg/mL
C[C@H]1c2cccc(O)c2C(=O)C2=C(O)[C@]3(O)C(=O)C(C(N)=O)=C(O)[C@@H](N(C)C)[C@@H]3[C@@H](O)[C@@H]21 [Doxycycline, doxycycline]	16	2.16	–	0.5	0.5	32.7 (≈ 73.5 µM)	6.16 (≈ 13.9 µM)	> 128	32.2 (≈ 72.4 µM)	3.08	9.33	0.5	–	16	16	–	MBIC alone, ATB ([5]; antibiotic alone, S. epidermidis biofilm inhibition, listed as Dox): 3.08 µg/mL and 3.41 µg/mL
NCC[C@H](O)C(=O)N[C@@H]1C[C@H](N)[C@@H](O[C@H]2O[C@H](CN)[C@@H](O)[C@H](O)[C@H]2O)[C@H](O)[C@H]1O[C@H]1O[C@H](CO)[C@@H](O)[C@H](N)[C@H]1O [Amikacin, amikacin]	21.33	1.83	3.08	2.08	2.08	> 128	4.33 (≈ 7.39 µM)	> 128	22 (≈ 37.6 µM)	3.08	13.3	2.08	3.08	13.3	–	1.83	–
